EP3932918A1, “EUTECTIC CRYSTAL FORMED BY APIXABAN AND CARBOXYLIC ACID, AND PREPARATION METHOD THEREFOR” (Zhejiang Tianyu Pharmaceutical Co., Ltd., priority 2019, dated 2021)

Experiment: Dissolution rate test of Apixaban/carboxylic acid co-crystal (paddle method, Chinese Pharmacopoeia guidelines; equilibrium solubility in dissolution medium)
Format: physicochemical
Settings: relative to Apixaban; dissolution medium 0.1mol/L hydrochloric acid, 37±0.5°C, paddle method 100rpm, 900ml, 500 mg sample powder
Procedure: Test Example 1: Dissolution rate test of Apixaban/carboxylic acid co-crystal
According to the dissolution rate test guidelines in the current Chinese Pharmacopoeia, a dissolution rate experiment was designed to respectively investigate the dissolution rates of the five Apixaban/carboxylic acid co-crystals prepared by the present invention. The specific scheme is as follows:
Table 6 Dissolution equipment and parameters
0.1mol/L hydrochloric acid solution: 9ml of hydrochloric acid was added into 1000ml of water and stirred well.
After the dissolution conditions were reached, 500 mg of sample powder were weighed and put into a dissolution cup, rotated, and immediately counted the time, after 1, 2, 3, 4, 6, 8, 10, 12, 14, 16, 18, 20, 22 and 24 hours, sampled with a sampling needle equipped with a 10µm polymeric polyethylene filter membrane, and filtered on-line through a 0.45µm polyvinylidene fluoride (PVDF) filter membrane.

| Substance | dissolution rate (times that of Apixaban) |
| --- | --- |
| Apixaban/D-malic acid co-crystal [crystal form II] | 1.44 times |
| Apixaban/malonic acid co-crystal [crystal form I] | 1.4 times |
